Data on eight molecules can be found in patent publication US5356921A, “Imidazolylphenol compounds, pharmaceutical compositions containing them, and processes for preparing such compounds and compositions” (Gruenenthal GmbH, priority 1992, dated 1994).

Usually IC50 stands for the concentration that gives 50% inhibition.

In assay [1] the target is T1, 5-lipoxygenase (Rattus norvegicus, UniProt P12527).
T1 construct: endogenous in cells; host or cells: RBL-1 cells (rat basophilic leukemia), intact
T1 sequence (P12527 1-673): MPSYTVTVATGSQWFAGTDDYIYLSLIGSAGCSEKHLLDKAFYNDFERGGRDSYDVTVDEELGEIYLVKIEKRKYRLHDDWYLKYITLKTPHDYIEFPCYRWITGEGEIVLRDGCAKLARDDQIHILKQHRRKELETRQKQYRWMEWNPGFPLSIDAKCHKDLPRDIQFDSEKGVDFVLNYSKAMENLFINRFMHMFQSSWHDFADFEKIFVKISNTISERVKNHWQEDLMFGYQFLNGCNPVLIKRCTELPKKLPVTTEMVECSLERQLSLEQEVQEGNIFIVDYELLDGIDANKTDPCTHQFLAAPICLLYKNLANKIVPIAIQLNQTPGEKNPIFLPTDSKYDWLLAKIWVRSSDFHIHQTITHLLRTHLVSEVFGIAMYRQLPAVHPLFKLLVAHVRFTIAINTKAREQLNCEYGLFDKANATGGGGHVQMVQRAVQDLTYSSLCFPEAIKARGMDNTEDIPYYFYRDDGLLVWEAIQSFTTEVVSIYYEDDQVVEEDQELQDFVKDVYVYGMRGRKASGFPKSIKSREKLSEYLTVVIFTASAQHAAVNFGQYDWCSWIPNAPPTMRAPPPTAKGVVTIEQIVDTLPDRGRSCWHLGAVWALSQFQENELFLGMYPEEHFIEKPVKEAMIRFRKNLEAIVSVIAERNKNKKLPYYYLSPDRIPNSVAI
The assay can be described thus: Inhibition of 5-lipoxygenase in RBL-1-cells. In kind it is cell-based. The settings on record: 20 μM [14C]-arachidonic acid, 20 μM A 23 187. As for the experimental part:
To determine the inhibition of 5-lipoxygenase rat basophilic leukemia cells (RBL-1-cells) were cultured in vitro, harvested by centrifugation, washed with 50 mM potassium phosphate buffer of pH 7.4, and then suspended in this buffer at 1×10^7 cells/mi. To 1 ml each of this suspension there was added indomethacin (10 μM) and calcium chloride (2 mM), and then the mixture was incubated in the absence or presence of a compound according to the invention in a concentration range of from 0.1 μM to 100 μM for 3 minutes and thereafter with 20 μM of [^14 C]-arachidonic acid and 20 μM of the calcium ionophore A 23 187 for 10 minutes. The reaction was stopped by adding 20 μl of glacial acetic acid, and then the mixture was extracted with ethyl acetate to isolate the metabolites of arachidonic acid formed by the enzymatic action of 5-lipoxygenase. These were separated by thin layer chromatography using a solvent mixture known to be suitable for lipoxygenase products [c.f. Jakschik et al., Biochem. Biophys. Res. Commun. 102, 624 (1981)].
The distribution of the radioactivity among the various metabolites of arachidonic acid was measured using a TLC Linear Analyzer. By correlating the percentages of the amount of the products formed under the action of 5lipoxygenase (5-HETE, isomers of LTB4) in the absence as well as in the presence of different concentrations of compounds according to the invention, the IC50 -values, i.e. the concentrations which cause 50% inhibition of 5-lipoxygenase were determined graphically from semilogarithmic diagrams.

For assay [2], the target named is T2, thromboxane synthase (Homo sapiens, UniProt P24557).
T2 construct: human thrombocytes were isolated from platelet-rich plasma; endogenous in cells; host or cells: human thrombocytes (platelets), intact
T2 sequence (P24557 1-533): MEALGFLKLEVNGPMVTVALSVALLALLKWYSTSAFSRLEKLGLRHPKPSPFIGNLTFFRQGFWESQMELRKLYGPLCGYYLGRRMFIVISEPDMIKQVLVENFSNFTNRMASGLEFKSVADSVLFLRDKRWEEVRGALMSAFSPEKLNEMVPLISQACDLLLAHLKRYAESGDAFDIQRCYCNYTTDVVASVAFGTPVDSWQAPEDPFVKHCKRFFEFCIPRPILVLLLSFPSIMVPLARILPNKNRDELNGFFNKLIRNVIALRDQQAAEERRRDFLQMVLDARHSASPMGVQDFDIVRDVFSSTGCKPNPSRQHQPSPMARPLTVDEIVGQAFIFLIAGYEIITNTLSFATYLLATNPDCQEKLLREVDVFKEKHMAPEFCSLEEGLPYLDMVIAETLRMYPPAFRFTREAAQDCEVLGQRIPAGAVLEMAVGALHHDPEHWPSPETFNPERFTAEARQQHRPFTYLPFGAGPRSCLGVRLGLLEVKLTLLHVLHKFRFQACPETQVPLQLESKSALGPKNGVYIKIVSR
The assay can be described thus: Inhibition of thromboxane synthase (human thrombocytes). In kind it is cell-based. The note with it: for IC50: human thrombocytes, arachidonic acid 3.5 μM, read-out: IC50-Value, inhibition of thromboxane synthase (TXB2 formation); for inhibitory action on thromboxane synthase: in words. As for the experimental part: After addition of prostacyclin, human thrombocytes were isolated from platelet-rich plasma and suspended in Tyrode-Hepes buffer of pH 7.4 at 2×10^8 cells/ml. One ml aliquots of cells were incubated either with a compound according to the invention (0.1 to 100 μM) or a solvent (ethanol and/or dimethyl sulfoxide) at 37° C. for 3 minutes and thereafter with radioactively labelled arachidonic acid (3.5 μM) for 5 minutes. The reaction was stopped and the metabolites of arachidonic acid were extracted by adding methanol, chloroform and formic acid. After evaporation of the chloroform-containing layer to dryness under nitrogen, the residue obtained was resuspended in 50 μl chloroform and analyzed by thin layer chromatography. The distribution of the radioactivity of the different metabolites of arachidonic acid was measured using a TLC linear analyzer.

In assay [3] the test system is 5-lipoxygenase. The assay can be described thus: 5-lipoxygenase inhibition in rat blood after oral administration (ex vivo iLTB4-formation). The settings on record: male Wistar rats, 21.5 mg/kg oral, one hour after administration, A 23 187 15 μg/ml. As for the experimental part: The bioavailability of the compounds of formula I as 5-lipoxygenase inhibitors was characterized by means of an ex vivo biochemical assessment method described by Tateson et al. in Brit. J. Pharmacol. 94, 528 (1988). A compound of formula I was orally administered to male rats (Wistar strain) in a dose of 21.5 mg/kg. One hour after administration the rats after lethal CO2 -narcosis were bled by heart puncture with added heparin as an anticoagulant. Aliquots of the whole blood were incubated at 37° C. for 30 minutes in a water bath with calcium ionophore A 23 187 at an end concentration of 15 μg/ml. At the end of the incubation the samples were centrifuged, and the concentration of immunoreactive LTB4 (iLTB4) in aliquots of […] percent inhibition of ex vivo iLTB4 -formation in whole blood of rats treated with a compound according to the invention, rats orally treated with an appropriate vehicle solution were included in all experiments, and aliquots of their blood were run in parallel and were processed in the same way as described. The average iLTB4 -content of the plasma of the vehicle treated rats served as the 100% value. The activity in percent of the ex vivo iLTB4 -formation after oral administration of a compound according to the invention was calculated by dividing the average value of the iLTB4 -content in ng iLTB4 /ml of the group treated with a compound according to the invention by the average value of the iLTB4 -contents in ng iLTB4 /ml of the vehicle treated group and subsequent multiplication by the factor 100. The respective inhibition in percent was calculated by subtracting the activity in percent from 100.

Assay [4] has as its target T1, 5-lipoxygenase. The assay can be described thus: Inhibition of cell-free 5-lipoxygenase from RBL-1-cells. The note with it: 10,000×g supernatant of RBL cells; polarographic; arachidonic acid 75 μM. Format: biochemical. The protocol:
Cell-free 5-lipoxygenase was polarographically measured from 10,000×gsupernatant of homogenized rat basophilic leucemia cells [M. Haurand and L. Flohe in Biol. Chem. Hoppe-Seyler 369, 133-142 (1988)]. After preincubation of the 10,000×g supernatant with arachidonic acid (75 μM), ATP (adenosine triphosphate; 4 μM), reduced glutathione (4 mM), and either a compound according to the invention (0.1 to 100 μM) or a solvent (ethanol and/or dimethyl sulfoxide) at 35° C. for 5 minutes, the lipoxygenase reaction was initiated by addition of calcium chloride (3 mM) and recorded simultaneously.
The activity of 5-lipoxygenase was determined from the difference of the pO2 -decrease before and after addition of calcium chloride. The evaluation included the initial rate of the reaction after the lag-phase as well as the duration of the lag-phase. In a concentration range of from 5 to 10 μM the test substances induced lag-phases of 15 seconds.

Assay [5] concerns guinea pigs. The assay can be described thus: Allergen-induced bronchoconstriction in guinea pigs (Konzett-Roessler). Format: in vivo, guinea pig. The note with it: 60 minutes before ovalbumin. As for the experimental part: The antiasthmatic effect of compounds according to the invention was tested in anesthetized and ventilated guinea pigs. To induce an asthmatic reaction, the animals were passively sensitized by a single intraperitoneal injection of anti-ovalbumin serum. After 48 hours an asthmatic reaction was elicited by intravenous challenge with 0.2 mg/kg of ovalbumin. The immediately resulting bronchoconstriction was measured as an increase in intratracheal pressure. Effects caused by histamine, serotonin and sympathic counterreaction were eliminated by intravenous pretreatment with 2.15 mg/kg of mepyramine, 46.4 μg/kg of propranolol, 4.64 mg/kg of atropine, and 1 mg/kg of methysergide, all administered 5 minutes before challenge. Compounds according to the invention were orally administered 60 minutes before the administration of ovalbumin. The following ED40-values for the inhibition of the bronchoconstriction elicited by ovalbumin, i.e. the effective doses causing a 40% average inhibition of the bronchoconstriction, were determined: […]

The test system of assay [6] is 5-lipoxygenase. The note with it: in words, no test shown; cited from earlier work.

Each structure is given as a SMILES string.

Molecule `NC(=O)N(O)Cc1ccc(Oc2cccc(-n3ccnc3)c2)cc1` [Example 10, N-hydroxy-N-[4-[3-(1H-imidazol-1-yl)phenoxy]phenylmethyl]urea] gave an IC50 in assay [1] of 2 µM.
Turning to `NC(=O)N(O)Cc1ccc(OCCn2ccnc2)cc1` [Comparison, N-hydroxy-N-[4-[2-(1H-imidazol-1-yl)ethoxy]phenylmethyl]urea, reference compound], the figures for the IC50 in assay [2], in assay [1] and in assay [4] were 4 µM, over 100 µM and over 100 µM, respectively. For the same molecule, the “Inhibition of ex vivo iLTB4-formation in whole blood” value (from here on “Inhibition … in whole blood”) in assay [3] was determined as 42%.
Take `NC(=O)N(O)Cc1cccc(Oc2ccc(-n3ccnc3)cc2)c1` [Example 5, N-hydroxy-N-[3-[4-(1H-imidazol-1-yl)phenoxy]phenylmethyl]urea]: the results for the IC50 in assay [2], in assay [1] and in assay [4] were 2.5 µM, 6 µM and 2 µM, respectively. Further, the “inhibitory action on thromboxane synthase” value (“inhibitory action” below) in assay [2] was “same inhibitory potency as the hydrochloride of the imidazolylethoxybenzoic acid UK 37 248”.
Consider `NC(=O)N(O)Cc1ccc(Oc2ccc(-n3ccnc3)cc2)cc1` [Example 2, Imidazolium Chloride of N-hydroxy-N-[4-[4-(1H-imidazol-1-yl)phenoxy]phenylmethyl]urea], for which the “ED50-Value, inhibition of the bronchoconstriction elicited by ovalbumin” value in assay [5] (oral, ED40) stood at 5.1 mg/kg. This molecule came in with an IC50 in assay [1] of 5 µM. Further, the “Inhibition … in whole blood” value in assay [3] (21.5 mg/kg) came out at 95%.
With `NC(=O)N(O)Cc1ccc(Oc2ccc(-n3ccnc3)cc2)s1` [Example 4, N-hydroxy-N-[5-[4-(1H-imidazol-1-yl)phenoxy]thien-2-yl-methyl]urea], in assay [5] (Cavia porcellus, po, 1 h, read-out: ED40-Value, inhibition of the bronchoconstriction elicited by ovalbumin), the ED40 was determined as 6.3 mg/kg. For the same molecule, in assay [1], the IC50 was 3 µM. In addition, in assay [3], the “Inhibition … in whole blood” value was 93%.
Regarding `NC(=O)N(O)Cc1ccc(Oc2ccc(-n3ccnc3)cc2)o1` [Example 6, N-hydroxy-N-[5-[4-(1H-imidazol-1-yl)phenoxy]furan-2-yl-methyl]urea], the “Inhibition … in whole blood” value in assay [3] came to 84%.
On to `CC(c1cc2ccccc2s1)N(O)C(N)=O` (centres unmarked) [Zileuton (A 64 077), reference compound], for which, in assay [2], the IC50 was over 100 µM and the “inhibitory action” value is listed as “did not exert an inhibitory action on thromboxane synthase”.
Regarding `Cl.O=C(O)c1ccc(OCCn2ccnc2)cc1` [UK 37 248, 4-[2-(1H-imidazol-1-yl)-ethoxy]benzoic acid hydrochloride, reference compound], in assay [2], the “inhibitory action” value is “inhibits the activity of thromboxane synthase”. In addition, the “inhibits the activity of 5-lipoxygenase” value in assay [6] is “not the activity of 5-lipoxygenase”.
